Test results reported in US11717508B2, “Compounds, compositions, and methods for inhibiting bacterial growth” (priority 2016, dated 2023).
“And” between values parts separate entries of the source, which are not always exact repeats. Equal values may be shown once. Read-outs that look alike come from different tables or passages of the source.

Assays:
DosRST regulon = format: cell-based; details: 40 μM, 6 days, >2-fold, p<0.05
CDC1551(ΔdosR) mutant = format: cell-based; details: for Counts per million (CPM) / Counts per million (CPM) DosR_HC103A1 / Counts per million (CPM) DosR_HC103A2: DosR mutant treated with HC103A; for Counts per million (CPM): replicates 1, 2; for DosR DMSO/DosR HC103A Fold change / log2 Fold change: DosR mutant; for Counts per million (CPM) DosR_HC103A1: replicate 1; for Counts per million (CPM) DosR_HC103A2: replicate 2
[1] = gene MT0169 Rv0l60c PE, HC103A vs DMSO
[2] = gene MT0206 (Rv0196), HC103A compared to DMSO, upregulated
[3] = gene MT0207 (Rv0197), HC103A compared to DMSO, upregulated
[4] = gene MT0273 Rv0260c, HC103A vs DMSO
[5] = gene MT0585 (Rv0559c), HC103A compared to DMSO, upregulated
[6] = gene MT0586 (Rv0560c), HC103A compared to DMSO, upregulated
[7] = gene MT0587 (Rv0561c), HC103A compared to DMSO, upregulated
[8] = gene MT0808 (Rv0784), HC103A compared to DMSO, upregulated
[9] = gene MT0846 Rv0824c desA1, HC103A vs DMSO
[10] = gene MT0908 Rv0885, HC103A vs DMSO
[11] = gene MT0909 Rv0886 fprB, HC103A vs DMSO
[12] = gene MT1214 Rv1177 fdxC, HC103A vs DMSO
[13] = gene MT1297 (Rv1258c), HC103A compared to DMSO, upregulated
[14] = gene MT1430 Rv1386 PE, HC103A vs DMSO
[15] = gene MT1608 (Rv1557, mmpL6), HC103A compared to DMSO, upregulated
[16] = gene MT1690 Rv1652 argC, HC103A vs DMSO
[17] = gene MT1692 Rv1654 argB, HC103A vs DMSO
[18] = gene MT1694 Rv1656 argF, HC103A vs DMSO
[19] = gene MT2466, HC103A compared to DMSO, upregulated
[20] = gene MT2467, HC103A compared to DMSO, upregulated
[21] = gene MT3110 (Rv3026c), HC103A compared to DMSO, upregulated
[22] = gene MT3134 Rv3049c, HC103A vs DMSO
[23] = gene MT3249 (Rv3160c), HC103A compared to DMSO, upregulated
[24] = gene MT3250 (Rv3161c), HC103A compared to DMSO, upregulated
[25] = gene MT3591 (Rv3487c, lipF), HC103A compared to DMSO, upregulated
[26] = gene MT3933 (Rv3825c, pks2), HC103A compared to DMSO, upregulated

O=C(Nc1cccc(O)c1)c1cccc(NC(=O)c2cccs2)c1 [HC103A, N-[3-[(3 hydroxyphenyl)carbamoyl]phenyl]thiophene-2-carboxamide]
genes downregulated by compound that are also downregulated in the CDC1551(ΔdosR) mutant (DosRST regulon): 76 genes
downregulated genes in CDC1551(ΔdosR) mutant treated with compound (CDC1551(ΔdosR) mutant; 40 μM, 6 days, >2-fold, p<0.05): 13 genes
Counts per million (CPM) (CDC1551(ΔdosR) mutant; gene MT0169 Rv0l60c PE): 32.4 CPM and 38.89 CPM
DosR DMSO/DosR HC103A Fold change (CDC1551(ΔdosR) mutant; [1]): 0.4759
log2 Fold change (CDC1551(ΔdosR) mutant; [1]): −1.071
Counts per million (CPM) DosR_HC103A1 (CDC1551(ΔdosR) mutant; gene MT0206 (Rv0196)): 286.4 CPM
Counts per million (CPM) DosR_HC103A2 (CDC1551(ΔdosR) mutant; gene MT0206 (Rv0196)): 309 CPM
DosR DMSO/DosR HC103A Fold change (CDC1551(ΔdosR) mutant; [2]): 6.59
log2 Fold change (CDC1551(ΔdosR) mutant; [2]): 2.72
Counts per million (CPM) DosR_HC103A1 (CDC1551(ΔdosR) mutant; gene MT0207 (Rv0197)): 509.4 CPM
Counts per million (CPM) DosR_HC103A2 (CDC1551(ΔdosR) mutant; gene MT0207 (Rv0197)): 528.3 CPM
DosR DMSO/DosR HC103A Fold change (CDC1551(ΔdosR) mutant; [3]): 4.134
log2 Fold change (CDC1551(ΔdosR) mutant; [3]): 2.047
Counts per million (CPM) (CDC1551(ΔdosR) mutant; gene MT0273 Rv0260c): 19.06 CPM and 17.95 CPM
DosR DMSO/DosR HC103A Fold change (CDC1551(ΔdosR) mutant; [4]): 0.4609
log2 Fold change (CDC1551(ΔdosR) mutant; [4]): −1.117
Counts per million (CPM) DosR_HC103A1 (CDC1551(ΔdosR) mutant; gene MT0585 (Rv0559c)): 4,246.95 CPM
Counts per million (CPM) DosR_HC103A2 (CDC1551(ΔdosR) mutant; gene MT0585 (Rv0559c)): 5,318.58 CPM
DosR DMSO/DosR HC103A Fold change (CDC1551(ΔdosR) mutant; [5]): 5.18
log2 Fold change (CDC1551(ΔdosR) mutant; [5]): 2.373
Counts per million (CPM) DosR_HC103A1 (CDC1551(ΔdosR) mutant; gene MT0586 (Rv0560c)): 8,065.19 CPM
DosR DMSO/DosR HC103A Fold change (CDC1551(ΔdosR) mutant; [6]): 384.9
log2 Fold change (CDC1551(ΔdosR) mutant; [6]): 8.588
Counts per million (CPM) DosR_HC103A1 (CDC1551(ΔdosR) mutant; gene MT0587 (Rv0561c)): 66.91 CPM
Counts per million (CPM) DosR_HC103A2 (CDC1551(ΔdosR) mutant; gene MT0587 (Rv0561c)): 74.86 CPM
DosR DMSO/DosR HC103A Fold change (CDC1551(ΔdosR) mutant; [7]): 2.044
log2 Fold change (CDC1551(ΔdosR) mutant; [7]): 1.031
Counts per million (CPM) DosR_HC103A1 (CDC1551(ΔdosR) mutant; gene MT0808 (Rv0784)): 242.1 CPM
Counts per million (CPM) DosR_HC103A2 (CDC1551(ΔdosR) mutant; gene MT0808 (Rv0784)): 193.9 CPM
DosR DMSO/DosR HC103A Fold change (CDC1551(ΔdosR) mutant; [8]): 2.445
log2 Fold change (CDC1551(ΔdosR) mutant; [8]): 1.29
Counts per million (CPM) (CDC1551(ΔdosR) mutant; gene MT0846 Rv0824c desA1): 2,264.39 CPM and 5,375.06 CPM
DosR DMSO/DosR HC103A Fold change (CDC1551(ΔdosR) mutant; [9]): 0.4703
log2 Fold change (CDC1551(ΔdosR) mutant; [9]): −1.088
Counts per million (CPM) (CDC1551(ΔdosR) mutant; gene MT0908 Rv0885): 2,165.30 CPM and 1,401.92 CPM
DosR DMSO/DosR HC103A Fold change (CDC1551(ΔdosR) mutant; [10]): 0.3709
log2 Fold change (CDC1551(ΔdosR) mutant; [10]): −1.431
Counts per million (CPM) (CDC1551(ΔdosR) mutant; gene MT0909 Rv0886 fprB): 412.7 CPM and 231.2 CPM
DosR DMSO/DosR HC103A Fold change (CDC1551(ΔdosR) mutant; [11]): 0.453
log2 Fold change (CDC1551(ΔdosR) mutant; [11]): −1.142
Counts per million (CPM) (CDC1551(ΔdosR) mutant; gene MT1214 Rv1177 fdxC): 704.9 CPM and 1,378.70 CPM
DosR DMSO/DosR HC103A Fold change (CDC1551(ΔdosR) mutant; [12]): 0.4926
log2 Fold change (CDC1551(ΔdosR) mutant; [12]): −1.021
Counts per million (CPM) DosR_HC103A1 (CDC1551(ΔdosR) mutant; gene MT1297 (Rv1258c)): 106.4 CPM
Counts per million (CPM) DosR_HC103A2 (CDC1551(ΔdosR) mutant; gene MT1297 (Rv1258c)): 137 CPM
DosR DMSO/DosR HC103A Fold change (CDC1551(ΔdosR) mutant; [13]): 2.269
log2 Fold change (CDC1551(ΔdosR) mutant; [13]): 1.182
Counts per million (CPM) (CDC1551(ΔdosR) mutant; gene MT1430 Rv1386 PE): 63.3 CPM and 54.49 CPM
DosR DMSO/DosR HC103A Fold change (CDC1551(ΔdosR) mutant; [14]): 0.4765
log2 Fold change (CDC1551(ΔdosR) mutant; [14]): −1.069
Counts per million (CPM) DosR_HC103A1 (CDC1551(ΔdosR) mutant; gene MT1608 (Rv1557, mmpL6)): 351.7 CPM
Counts per million (CPM) DosR_HC103A2 (CDC1551(ΔdosR) mutant; gene MT1608 (Rv1557, mmpL6)): 540 CPM
DosR DMSO/DosR HC103A Fold change (CDC1551(ΔdosR) mutant; [15]): 6.869
log2 Fold change (CDC1551(ΔdosR) mutant; [15]): 2.78
Counts per million (CPM) (CDC1551(ΔdosR) mutant; gene MT1690 Rv1652 argC): 130.6 CPM and 56.84 CPM
DosR DMSO/DosR HC103A Fold change (CDC1551(ΔdosR) mutant; [16]): 0.4979
log2 Fold change (CDC1551(ΔdosR) mutant; [16]): −1.006
Counts per million (CPM) (CDC1551(ΔdosR) mutant; gene MT1691): 81.47 CPM and 33.33 CPM
DosR DMSO/DosR HC103A Fold change (CDC1551(ΔdosR) mutant; gene MT1691, HC103A vs DMSO): 0.4846
log2 Fold change (CDC1551(ΔdosR) mutant; gene MT1691, HC103A vs DMSO): −1.045
Counts per million (CPM) (CDC1551(ΔdosR) mutant; gene MT1692 Rv1654 argB): 128.8 CPM and 55.27 CPM
DosR DMSO/DosR HC103A Fold change (CDC1551(ΔdosR) mutant; [17]): 0.4965
log2 Fold change (CDC1551(ΔdosR) mutant; [17]): −1.01
Counts per million (CPM) (CDC1551(ΔdosR) mutant; gene MT1694 Rv1656 argF): 79.75 CPM and 39.53 CPM
DosR DMSO/DosR HC103A Fold change (CDC1551(ΔdosR) mutant; [18]): 0.4259
log2 Fold change (CDC1551(ΔdosR) mutant; [18]): −1.231
Counts per million (CPM) DosR_HC103A1 (CDC1551(ΔdosR) mutant; gene MT2466): 356.4 CPM
Counts per million (CPM) DosR_HC103A2 (CDC1551(ΔdosR) mutant; gene MT2466): 182.6 CPM
DosR DMSO/DosR HC103A Fold change (CDC1551(ΔdosR) mutant; [19]): 2.643
log2 Fold change (CDC1551(ΔdosR) mutant; [19]): 1.402
Counts per million (CPM) DosR_HC103A1 (CDC1551(ΔdosR) mutant; gene MT2467): 57.69 CPM
Counts per million (CPM) DosR_HC103A2 (CDC1551(ΔdosR) mutant; gene MT2467): 12.39 CPM
DosR DMSO/DosR HC103A Fold change (CDC1551(ΔdosR) mutant; [20]): 2.468
log2 Fold change (CDC1551(ΔdosR) mutant; [20]): 1.303
Counts per million (CPM) DosR_HC103A1 (CDC1551(ΔdosR) mutant; gene MT3110 (Rv3026c)): 44.13 CPM
Counts per million (CPM) DosR_HC103A2 (CDC1551(ΔdosR) mutant; gene MT3110 (Rv3026c)): 30.13 CPM
DosR DMSO/DosR HC103A Fold change (CDC1551(ΔdosR) mutant; [21]): 2.016
log2 Fold change (CDC1551(ΔdosR) mutant; [21]): 1.012
Counts per million (CPM) (CDC1551(ΔdosR) mutant; gene MT3134 Rv3049c): 1,202.50 CPM and 892.7 CPM
DosR DMSO/DosR HC103A Fold change (CDC1551(ΔdosR) mutant; [22]): 0.4226
log2 Fold change (CDC1551(ΔdosR) mutant; [22]): −1.243
Counts per million (CPM) DosR_HC103A1 (CDC1551(ΔdosR) mutant; gene MT3249 (Rv3160c)): 172.6 CPM
DosR DMSO/DosR HC103A Fold change (CDC1551(ΔdosR) mutant; [23]): 2.261
log2 Fold change (CDC1551(ΔdosR) mutant; [23]): 1.177
Counts per million (CPM) DosR_HC103A1 (CDC1551(ΔdosR) mutant; gene MT3250 (Rv3161c)): 561.8 CPM
Counts per million (CPM) DosR_HC103A2 (CDC1551(ΔdosR) mutant; gene MT3250 (Rv3161c)): 555 CPM
DosR DMSO/DosR HC103A Fold change (CDC1551(ΔdosR) mutant; [24]): 2.364
log2 Fold change (CDC1551(ΔdosR) mutant; [24]): 1.241
Counts per million (CPM) (CDC1551(ΔdosR) mutant; gene MT3573.12): 281 CPM and 281.6 CPM
DosR DMSO/DosR HC103A Fold change (CDC1551(ΔdosR) mutant; gene MT3573.12, HC103A vs DMSO): 0.4221
log2 Fold change (CDC1551(ΔdosR) mutant; gene MT3573.12, HC103A vs DMSO): −1.244
Counts per million (CPM) DosR_HC103A1 (CDC1551(ΔdosR) mutant; gene MT3591 (Rv3487c, lipF)): 185.8 CPM
Counts per million (CPM) DosR_HC103A2 (CDC1551(ΔdosR) mutant; gene MT3591 (Rv3487c, lipF)): 63.03 CPM
DosR DMSO/DosR HC103A Fold change (CDC1551(ΔdosR) mutant; [25]): 2.033
log2 Fold change (CDC1551(ΔdosR) mutant; [25]): 1.023
Counts per million (CPM) DosR_HC103A1 (CDC1551(ΔdosR) mutant; gene MT3933 (Rv3825c, pks2)): 917.6 CPM
Counts per million (CPM) DosR_HC103A2 (CDC1551(ΔdosR) mutant; gene MT3933 (Rv3825c, pks2)): 561 CPM
DosR DMSO/DosR HC103A Fold change (CDC1551(ΔdosR) mutant; [26]): 2.341
log2 Fold change (CDC1551(ΔdosR) mutant; [26]): 1.227
